Here are results for two molecules from patent US7544668B2, “Saponins derived from Ilex pubescens and method of purifying the same” (priority 2006, dated 2009).

Test [1] has as its system radiant heat stimulation-induced tail flick reaction. Description: tail flick test, radiant heat stimulation in mice. It counts as in vivo, ICR mice. The conditions noted are these: for Tail flick reaction time: 50 mg/kg oral. Here is the method:
Animal Material. Male and female ICR mice weighing 18-24 g and male SD rats weighing 150-210 g were purchased from the Laboratory Animal Services Center, the Chinese University of Hong Kong, Hong Kong. The animals were acclimated for more than 1 week under 12 hours light and 12 hours dark cycle at room temperature of 22±1° C. Chow diet and water were provided ad libitum. Animal care and treatment procedures conformed to the Institutional Guidelines and Animal Ordinance (Department of Health, Hong Kong Special Administrative Region.) Mice and rats were fasted for 16 hours and 48 hours, respectively, before experiment.
Mode of Administration. The PSF solutions for anti-inflammatory and analgesic experiments were prepared by dissolving the product in 30% propanediol solution (for i.p. injection) and 0.5% (w/v) carboxymethylcellulose sodium salt (CMC—Na) (for orally administration), respectively. The reference drug indomethacin for anti-inflammatory test was dissolved in a vehicle that consisted of 10% peanut oil, 10% Tween-80 and 80% distilled water. Rotundine was suspended in 0.5% (w/v) CMC—Na salt and used as reference drug for anti-nociceptive experiment.
The anti-nociceptive effects of PSF and the reference drug, expressed as the time required for mice tail flick after exposure to a source of radiant heat, were evaluated according to the description of d'Amour^3. […] The tail-flick response was elicited by applying radiant heat to the point ⅓ of length away from the tip of the tail. The apparatus was arranged so that when the operator turned on the lamp a timer was activated. When the mice felt pain and flicked its tail, light fell on the photocell such that the timer was automatically stopped. The intensity of the heat stimulus in the tail-flick test was adjusted so that the animal flicked its tail within 3 to 6 seconds. A 12 seconds cut-off time was set in order to prevent tail tissues from damage. Before the experiment, the heat stimulation latency of all animals was tested, and those with response time to heat stimulation from […] were excluded. The tail-flick response was measured at 0.5, 1, and 2 hours after oral administration of PSF (200, 100 and 50 mg/kg body weight) or rotundine (50 mg/kg, as reference drug) or vehicle.

The subject of test [2] is acetic acid induced writhing response. Description: abdominal writhing test induced by acetic acid in mice. The class given is in vivo, ICR mice. As to the method: Animal Material. Male and female ICR mice weighing 18-24 g and male SD rats weighing 150-210 g were purchased from the Laboratory Animal Services Center, the Chinese University of Hong Kong, Hong Kong. The animals were acclimated for more than 1 week under 12 hours light and 12 hours dark cycle at room temperature of 22±1° C. Chow diet and water were provided ad libitum. Animal care and treatment procedures conformed to the Institutional Guidelines and Animal Ordinance (Department of Health, Hong Kong Special Administrative Region.) Mice and rats were fasted for 16 hours and 48 hours, respectively, before experiment. Mode of Administration. The PSF solutions for anti-inflammatory and analgesic experiments were prepared by dissolving the product in 30% propanediol solution (for i.p. injection) and 0.5% (w/v) carboxymethylcellulose sodium salt (CMC—Na) (for orally administration), respectively. The reference drug indomethacin for anti-inflammatory test was dissolved in a vehicle that consisted of 10% peanut oil, 10% Tween-80 and 80% distilled water. Rotundine was suspended in 0.5% (w/v) CMC—Na salt and used as reference drug for anti-nociceptive experiment. The abdominal writhing test induced by chemical stimulation of acetic acid was performed in mice as originally described by Siegmund^2. […] Rotundine was orally administrated 1 hour before acetic acid injection. After intraperitoneal injection of 0.2 ml acetic acid (0.8% w/v) in physiological saline (0.9% w/v NaCl), animals were isolated for observation. The numbers of abdominal writhing syndrome/events, which consisted of the contraction of the abdominal area with extension of hind legs, were recorded during a 15 minutes period in each animal.

For test [3], the system named is histamine-induced paw edema. Description: histamine induced paw edema in rats. The class given is in vivo, SD rats. The conditions noted are these: 10 mg/kg oral. As to the method: Animal Material. Male and female ICR mice weighing 18-24 g and male SD rats weighing 150-210 g were purchased from the Laboratory Animal Services Center, the Chinese University of Hong Kong, Hong Kong. The animals were acclimated for more than 1 week under 12 hours light and 12 hours dark cycle at room temperature of 22±1° C. Chow diet and water were provided ad libitum. Animal care and treatment procedures conformed to the Institutional Guidelines and Animal Ordinance (Department of Health, Hong Kong Special Administrative Region.) Mice and rats were fasted for 16 hours and 48 hours, respectively, before experiment. Mode of Administration. The PSF solutions for anti-inflammatory and analgesic experiments were prepared by dissolving the product in 30% propanediol solution (for i.p. injection) and 0.5% (w/v) carboxymethylcellulose sodium salt (CMC—Na) (for orally administration), respectively. The reference drug indomethacin for anti-inflammatory test was dissolved in a vehicle that consisted of 10% peanut oil, 10% Tween-80 and 80% distilled water. Rotundine was suspended in 0.5% (w/v) CMC—Na salt and used as reference drug for anti-nociceptive experiment. The volumes (ml) of both hind paws were measured using a plethysmometer (Plethysmometer 7150, UGO Basile, Italy) at 1 hour before the induction and 1, 2, 3, 4, 6, and 8 hours after the induction. The increased volumes (paw edema) of the right hind paws of rats were calculated by the following equation: the increased rate (%)=(B−A)/A×100, where A and B represent the paw volumes before and at different time points after the induction, respectively. The acute inflammation in the hind paws was induced by the subcutaneous injection of 0.05 ml 1% prepared solutions of histamine into right hind paws of rats. The left hind paws were used as controls. Administration of PSF (12.5 mg/kg, 25 mg/kg, 50 mg/kg, 100 mg/kg body weight, i.p. injection), or of the vehicle (30% propanediol) was performed at 10 minutes prior to carrageenan injection. Indomethacin was orally administrated at 1 hour before the induction. The volumes of the injected and control paws were measured at different time points designed from 0.5 to 4 hours after injection of histamine. The increased rates in paw volume were calculated in the same way as in carrageenan.

Test [4] relates to carrageenan-induced paw edema. Put plainly: carrageenan induced paw edema in rats. It counts as in vivo, SD rats. The conditions noted are these: 10 mg/kg oral. Here is the method:
Animal Material. Male and female ICR mice weighing 18-24 g and male SD rats weighing 150-210 g were purchased from the Laboratory Animal Services Center, the Chinese University of Hong Kong, Hong Kong. The animals were acclimated for more than 1 week under 12 hours light and 12 hours dark cycle at room temperature of 22±1° C. Chow diet and water were provided ad libitum. Animal care and treatment procedures conformed to the Institutional Guidelines and Animal Ordinance (Department of Health, Hong Kong Special Administrative Region.) Mice and rats were fasted for 16 hours and 48 hours, respectively, before experiment. Mode of Administration. The PSF solutions for anti-inflammatory and analgesic experiments were prepared by dissolving the product in 30% propanediol solution (for i.p. injection) and 0.5% (w/v) carboxymethylcellulose sodium salt (CMC—Na) (for orally administration), respectively. The reference drug indomethacin for anti-inflammatory test was dissolved in a vehicle that consisted of 10% peanut oil, 10% Tween-80 and 80% distilled water. Rotundine was suspended in 0.5% (w/v) CMC—Na salt and used as reference drug for anti-nociceptive experiment. The experiment was conducted as previously described by Winter^1. At the induction, each rat was injected with 0.1 ml freshly prepared carrageenan (1% w/v) in physiological saline (0.9% w/v NaCl) into subplantar tissues of the right hind paw. The left hind paws without injection were used as controls. PSF was i.p. administrated 10 minutes prior to carrageenan injection. Control animals received an appropriate volume of 30% propanediol. Indomethacin was orally administrated 1 hr before the carrageenan injection as a reference drug. The volumes (ml) of both hind paws were measured using a plethysmometer (Plethysmometer 7150, UGO Basile, Italy) at 1 hour before the induction and 1, 2, 3, 4, 6, and 8 hours after the induction. The increased volumes (paw edema) of the right hind paws of rats were calculated by the following equation: the increased rate (%)=(B−A)/A×100, where A and B represent the paw volumes before and at different time points after the induction, respectively.

[5] abbreviates: oral, in comparison with vehicle-treated animals.

Turning to `COc1cc2c(cc1OC)[C@@H]1Cc3ccc(OC)c(OC)c3CN1CC2` [Rotundine], the “Tail flick reaction time” value in test [1] (0.5 h after administration) was determined as 7.552 ± 3.301 s; in test [1] (1 h after administration) it was 11.044 ± 1.658 s; in test [1] (2 h after administration) it was 9.813 ± 3.069 s; in test [1] (time 0), 4.223 ± 0.458 s. Besides, the “effect on tail flick reaction time of mice” value in test [1] (setting [5]) was “prolonged the reaction time”. The “Inhibition (%)” value in test [2] (50 mg/kg oral 1 hour before acetic acid) was found to be 100%. In test [2] (50 mg/kg oral 1 hour before acetic acid, 15 minutes period), the Writhing count is reported as 0.00 ± 0.00. In addition, in test [2] (setting [5]), the “effect on number of writhing episodes of mice” value is listed as “complete analgesia”.

Take `COc1ccc2c(c1)c(CC(=O)O)c(C)n2C(=O)c1ccc(Cl)cc1` [Indomethacin]: the “Change in paw swelling after histamine injection (%)” value in test [3] (0.5 h after histamine) came out at 29.72 ± 10.67%; in test [3] (1 h after histamine), 14.64 ± 9.21 %; in test [3] (2 h after histamine) it was 11.51 ± 6.61 %; in test [3] (3 h after histamine), 11.35 ± 7.35%; in test [3] (4 h after histamine), 7.43 ± 6.05 %; in test [3] (6 h after histamine), 4.17 ± 6.05%. The “effect on histamine-induced edema” value in test [3] (at a later time than PSF) is reported as “significant inhibitory effect”. The “Changes in swelling percentage after carrageenan injection (%)” value in test [4] (1 h after carrageenan) was 8.54 ± 4.97 %; in test [4] (2 h after carrageenan), 10.80 ± 7.77 %; in test [4] (3 h after carrageenan), 9.49 ± 6.63 %; in test [4] (4 h after carrageenan), 13.53 ± 10.13 %; in test [4] (6 h after carrageenan), 17.43 ± 9.21 %; in test [4] (8 h after carrageenan) it was 34.70 ± 9.21%.
